Source: patent US20240199645A1, “POLYMORPHIC FORMS OF (S)-12-FLUORO-4-(1-METHYL-1H-PYRAZOL-5-YL)-7A,8,13,14-TETRAHYDRO-7H-[1,2,4]TRIAZOLO[4',3':1,6]PYRIDO[3,2-B]BENZOFURO[4,3-FG][1,4]OXAZONINE” (Fulcrum Therapeutics, Inc., priority 2021, published 2024)

Assay: Dynamic vapor sorption (DVS) analysis
Type: physicochemical
Details: between about 2 to about 92% relative humidity (RH); at 25° C.
Experimental: Dynamic vapor sorption (DVS) analysis was performed using a DVS Intrinsic 1. The sample (25 mg) was loaded into a sample pan, suspended from a microbalance and exposed to a humidified stream of nitrogen gas. The sample was held for a minimum of 5 min at each level and only progressed to the next humidity level if there was <0.002% change in weight between measurements (interval: 60 seconds) or 240 min had elapsed.

| SMILES | DVS mass change expressed as equivalents of water | dynamic vapor sorption (DVS) profile, mass change |
| --- | --- | --- |
| Cn1nccc1-c1cc2c(n3cnnc13)NCc1c(F)ccc3c1C(CO3)CO2 (stereo in doubt) [Form A, (S)-12-fluoro-4-(1-methyl-1H-pyrazol-5-yl)-7a,8,13,14-tetrahydro-7H-[1,2,4]triazolo[4′,3′:1,6]pyrido[3,2-b]benzofuro[4,3-fg][1,4]oxazonine] | about 1.48 eq. water | about 6.34 wt. % |
| Cn1nccc1-c1cc2c(n3cnnc13)NCc1c(F)ccc3c1C(CO3)CO2 (stereo in doubt) [Form E, (S)-12-fluoro-4-(1-methyl-1H-pyrazol-5-yl)-7a,8,13,14-tetrahydro-7H-[1,2,4]triazolo[4′,3′:1,6]pyrido[3,2-b]benzofuro[4,3-fg][1,4]oxazonine] | – | about 0.23 wt. % |
| Cn1nccc1-c1cc2c(n3cnnc13)NCc1c(F)ccc3c1C(CO3)CO2 (stereo in doubt) [Form U, (S)-12-fluoro-4-(1-methyl-1H-pyrazol-5-yl)-7a,8,13,14-tetrahydro-7H-[1,2,4]triazolo[4′,3′:1,6]pyrido[3,2-b]benzofuro[4,3-fg][1,4]oxazonine] | – | about 0.38 wt. % |
